The text below walks through data of ChEMBL document CHEMBL1131299 (J Med Chem, 1998).

The target in assay [1] is T1, Progesterone receptor (Homo sapiens, UniProt P06401).
T1 sequence (P06401 whole entry): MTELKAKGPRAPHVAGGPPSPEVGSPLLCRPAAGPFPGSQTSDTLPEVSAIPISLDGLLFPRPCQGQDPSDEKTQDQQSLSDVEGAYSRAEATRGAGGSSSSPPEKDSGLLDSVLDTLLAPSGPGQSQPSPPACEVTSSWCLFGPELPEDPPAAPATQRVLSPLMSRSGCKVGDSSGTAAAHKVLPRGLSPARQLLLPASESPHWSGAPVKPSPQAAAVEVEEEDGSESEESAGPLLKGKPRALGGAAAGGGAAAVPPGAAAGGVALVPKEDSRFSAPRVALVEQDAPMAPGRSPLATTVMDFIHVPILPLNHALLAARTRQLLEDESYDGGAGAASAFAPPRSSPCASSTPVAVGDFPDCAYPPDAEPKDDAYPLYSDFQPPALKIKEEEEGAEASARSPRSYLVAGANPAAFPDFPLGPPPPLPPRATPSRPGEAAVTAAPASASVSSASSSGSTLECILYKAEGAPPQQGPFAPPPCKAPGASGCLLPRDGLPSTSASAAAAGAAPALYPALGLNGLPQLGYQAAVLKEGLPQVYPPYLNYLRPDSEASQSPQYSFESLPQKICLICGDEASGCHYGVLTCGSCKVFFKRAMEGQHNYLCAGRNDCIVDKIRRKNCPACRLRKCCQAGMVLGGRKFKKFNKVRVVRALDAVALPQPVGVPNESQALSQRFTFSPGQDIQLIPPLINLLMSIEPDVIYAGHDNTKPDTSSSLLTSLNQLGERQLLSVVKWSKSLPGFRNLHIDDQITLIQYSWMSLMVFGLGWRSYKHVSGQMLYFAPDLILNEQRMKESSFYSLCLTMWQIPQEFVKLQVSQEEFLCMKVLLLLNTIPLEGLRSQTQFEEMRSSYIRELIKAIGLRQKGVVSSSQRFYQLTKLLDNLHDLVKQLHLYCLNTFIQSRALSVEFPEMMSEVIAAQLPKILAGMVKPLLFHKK
The assay can be described thus: The binding affinity measured using baculovirus-expressed hPR-A in sf21 cells.

Assay [2] deals with T1, Progesterone receptor. Kind of assay: Agonistic activity was measured for modulation of hPR-B (human progesterone receptor) in co-transfected CV-1 cells. It counts as functional, cell-based.
The species named for another assay is Rattus norvegicus. The assay can be described thus: Compound was Dawley rats expressed as response to MPA at […]. The class given is functional.

Turning to `COc1ccc(C2Oc3ccc(Cl)cc3-c3ccc4c(c32)C(C)=CC(C)(C)N4)cc1` (stereo not drawn), at Progesterone receptor [1], the Ki (usually the dissociation constant of the complex between target and ligand, obtained from inhibition or displacement) was found to be 0.93 nM. Moreover, on Progesterone receptor [2], the EC50 (as a rule, the concentration at which the effect is half-maximal) amounted to 13 nM.
`COc1ccc2c(c1)-c1ccc3c(c1C(c1ccc(Cl)cc1)O2)C(C)=CC(C)(C)N3` (stereo not drawn) had a Ki at Progesterone receptor [1] of 2.4 nM. Moreover, the midpoint of the response at Progesterone receptor [2], the EC50, lay at 3.1 nM.
`CC1=CC(C)(C)Nc2ccc3c(c21)C(c1ccc(Cl)cc1)Oc1cc(F)ccc1-3` (stereo not drawn) gave a Ki on Progesterone receptor [1] of 2.7 nM. The molecule further came in with an EC50 on Progesterone receptor [2] of 10 nM.
Regarding `CC1=CC(C)(C)Nc2ccc3c(c21)C(c1ccc(F)c(C)c1)Oc1ccc(Cl)cc1-3` (stereo not drawn), the Ki at Progesterone receptor [1] is 1.3 nM. At Progesterone receptor [2], this molecule returned an EC50 of 9.5 nM.
Taken in the same sequence, the figures for `CC1=CC(C)(C)Nc2ccc3c(c21)C(c1cccc(C(F)(F)F)c1)Oc1ccc(F)cc1-3` (stereo not drawn) were 0.78 nM and 10 nM.
Regarding `COc1ccc(C2Oc3ccc(F)cc3-c3ccc4c(c32)C(C)=CC(C)(C)N4)cc1` (stereo not drawn), the Ki at Progesterone receptor [1] was 2.7 nM. Besides, the response on Progesterone receptor [2] was half-maximal at 270 nM (EC50).
Consider `CC1=CC(C)(C)Nc2ccc3c(c21)C(c1ccc(Cl)c(C)c1)Oc1ccc(Cl)cc1-3` (stereo not drawn), for which the Ki at Progesterone receptor [1] amounted to 0.5 nM.
The molecule `CC1=CC(C)(C)Nc2ccc3c(c21)C(c1cccc(Cl)c1)Oc1ccc(F)cc1-3` (stereo not drawn) gave a Ki at Progesterone receptor [1] of 0.32 nM. The same molecule gave an EC50 on Progesterone receptor [2] of 2.8 nM.
On to `CC1=CC(C)(C)Nc2ccc3c(c21)C(c1cccc(C)c1)Oc1ccc(Cl)cc1-3` (stereo not drawn), for which the Ki on Progesterone receptor [1] is 0.55 nM. The molecule also displayed an EC50 at Progesterone receptor [2] of 7.1 nM.
The matching figures for `CC1=CC(C)(C)Nc2ccc3c(c21)C(c1ccccc1)Oc1ccc(Cl)cc1-3` (stereo not drawn): 0.74 nM and 6.9 nM.
The molecule `CC1=CC(C)(C)Nc2ccc3c(c21)C(c1cccc(Cl)c1)Oc1ccc(Cl)cc1-3` (stereo not drawn) displayed an inhibitory constant (Ki) on Progesterone receptor [1] of 0.48 nM. The molecule also yielded a 50% effective concentration (EC50) at Progesterone receptor [2] of 3.6 nM.
On to `CC1=CC(C)(C)Nc2ccc3c(c21)C(c1ccc(Cl)cc1)Oc1ccc(Cl)cc1-3` (stereo not drawn), for which, in the assay filed under Rattus norvegicus, the Efficacy was 108%. This molecule returned a Ki on Progesterone receptor [1] of 0.59 nM. At Progesterone receptor [2], a half-maximal response (EC50) required 9 nM.
In turn, `CC1=CC(C)(C)Nc2ccc3c(c21)C(c1ccccc1)Oc1ccc(F)cc1-3` (stereo not drawn) registered a Ki on Progesterone receptor [1] of 2.2 nM. This molecule also had an EC50 on Progesterone receptor [2] of 7.4 nM.
In the case of `CC1=CC(C)(C)Nc2ccc3c(c21)C(c1ccc(Cl)c(C)c1)Oc1ccc(F)cc1-3` (stereo not drawn), at Progesterone receptor [1], the Ki stood at 0.49 nM. On Progesterone receptor [2], the EC50 amounted to 2.7 nM.
Consider `CC1=CC(C)(C)Nc2ccc3c(c21)C(c1cccc(C(F)(F)F)c1)Oc1ccc(Cl)cc1-3` (stereo not drawn), for which, on Progesterone receptor [1], the Ki turned out to be 1.1 nM.
In the case of `CC1=CC(C)(C)Nc2ccc3c(c21)C(c1ccc(Br)cc1)Oc1ccc(Cl)cc1-3` (stereo not drawn), the Efficacy in the assay listed under Rattus norvegicus is 60%. At Progesterone receptor [1], this molecule returned a Ki of 0.59 nM. Moreover, at Progesterone receptor [2], the midpoint of the response, the EC50, lay at 5.2 nM.
Molecule `CC(=O)O[C@]1(C(C)=O)CC[C@H]2[C@@H]3C[C@H](C)C4=CC(=O)CC[C@]4(C)[C@H]3CC[C@@]21C` [MEDROXYPROGESTERONE ACETATE] came in with an Efficacy in the assay filed under Rattus norvegicus of 100%.
The molecule `CC1=CC(C)(C)Nc2ccc3c(c21)C(c1cccc(F)c1)Oc1ccc(Cl)cc1-3` (stereo not drawn) displayed a Ki at Progesterone receptor [1] of 0.34 nM. This molecule also returned an EC50 at Progesterone receptor [2] of 3.7 nM.
In the case of `CC1=CC(C)(C)Nc2ccc3c(c21)C(c1cccc(C)c1)Oc1ccc(F)cc1-3` (stereo not drawn), the Ki at Progesterone receptor [1] amounted to 0.37 nM. Further, at Progesterone receptor [2], the concentration for a half-maximal effect (EC50) was found to be 5 nM.
Take `CC1=CC(C)(C)Nc2ccc3c(c21)C(c1ccc(F)c(C)c1)Oc1ccc(F)cc1-3` (stereo not drawn): affinity on Progesterone receptor [1] was put at a Ki of 1.3 nM. This molecule also gave a half-maximal effective concentration (EC50) at Progesterone receptor [2] of 15 nM.
For the molecule `CC1=CC(C)(C)Nc2ccc3c(c21)C(c1ccc(Cl)cc1)Oc1ccc(F)cc1-3` (stereo not drawn), the Efficacy in the assay filed under Rattus norvegicus turned out to be 116%. The molecule also yielded a Ki on Progesterone receptor [1] of 0.32 nM. Moreover, the midpoint of the response at Progesterone receptor [2], the EC50, lay at 8.1 nM.
The molecule `CC1=CC(C)(C)Nc2ccc3c(c21)C(c1ccc(Cl)cc1)Oc1ccccc1-3` (stereo not drawn) registered a concentration for a half-maximal effect (EC50) at Progesterone receptor [2] of 15 nM.
